Reference: patent US12459899B2, “Isoquinolinone derivatives, method for preparing the same, and pharmaceutical composition for preventing or treating poly(ADP-ribose) polymerase-1-related diseases, comprising the same as active ingredient” (DIGMBIO. INC., priority 2019, dated 2025)
pIC50: −log10 of the molar value.

molecular target: PARP-1 (poly[ADP-ribose] polymerase 1) enzyme (Homo sapiens (Human), UniProt P09874); assay: PARP-1 (poly[ADP-ribose] polymerase 1) enzyme inhibitory ability, Trevigen assay kit; format: biochemical; settings: 1 nM compound; read-out: PAR P-1 Inhibitory ability at 1 nM
Method in brief: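 After the 1 hour PARP reaction, wells were washed with PBS containing 0.1% triton X-100 and then PBS. Strep-HRP (50 μL) was bound for 1 hour, wells washed again, and 50 μL of TACS-sapphire substrate developed 15 minutes in the dark. Reactions were stopped with 50 μL of 5% phosphoric acid and absorbance read at 450 nm on a Victor3 reader.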

Sequence of PARP-1 (poly[ADP-ribose] polymerase 1) enzyme (P09874 whole entry): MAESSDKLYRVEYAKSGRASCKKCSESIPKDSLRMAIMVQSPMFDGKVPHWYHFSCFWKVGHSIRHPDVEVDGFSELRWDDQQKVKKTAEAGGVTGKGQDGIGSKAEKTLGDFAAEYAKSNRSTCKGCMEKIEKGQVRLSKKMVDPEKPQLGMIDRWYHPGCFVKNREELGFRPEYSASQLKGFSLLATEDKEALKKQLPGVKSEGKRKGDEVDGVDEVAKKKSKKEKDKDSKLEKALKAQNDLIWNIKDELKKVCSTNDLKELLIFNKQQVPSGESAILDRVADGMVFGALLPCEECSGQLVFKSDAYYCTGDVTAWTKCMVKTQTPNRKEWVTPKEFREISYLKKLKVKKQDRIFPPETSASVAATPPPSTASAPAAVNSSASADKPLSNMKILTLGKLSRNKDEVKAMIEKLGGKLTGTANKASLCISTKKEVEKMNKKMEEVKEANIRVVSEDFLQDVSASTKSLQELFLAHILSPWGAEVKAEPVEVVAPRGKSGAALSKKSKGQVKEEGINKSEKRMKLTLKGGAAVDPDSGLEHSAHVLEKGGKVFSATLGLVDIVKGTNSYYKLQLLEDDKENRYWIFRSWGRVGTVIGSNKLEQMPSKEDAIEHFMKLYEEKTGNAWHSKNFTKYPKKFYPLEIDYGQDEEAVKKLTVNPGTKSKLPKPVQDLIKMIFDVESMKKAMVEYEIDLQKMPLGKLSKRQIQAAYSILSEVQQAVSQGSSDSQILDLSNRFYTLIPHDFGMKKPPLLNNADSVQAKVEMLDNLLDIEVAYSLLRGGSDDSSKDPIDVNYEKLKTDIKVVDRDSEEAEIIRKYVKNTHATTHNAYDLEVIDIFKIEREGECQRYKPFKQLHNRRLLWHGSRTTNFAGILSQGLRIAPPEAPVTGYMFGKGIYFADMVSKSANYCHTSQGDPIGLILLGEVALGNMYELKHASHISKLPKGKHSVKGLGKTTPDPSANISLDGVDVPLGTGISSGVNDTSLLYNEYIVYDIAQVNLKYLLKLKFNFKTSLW

Compound | inhibition at 0.001 µM [%]
Cc1ccc(F)c2c(=O)[nH]c(CCCN3C4CCC3CN(c3ccc(C#N)nc3)C4)cc12 [Example 200, 5-(8-(3-(8-fluoro-5-methyl-1-oxo-1,2-dihydroisoquinolin-3-yl)propyl)-3,8-diazabicyclo[3.2.1]octan-3-yl)picolinonitrile] | 50 to 80
Cc1ccc(F)c2c(=O)[nH]c(CCCN3C4CCC3CN(c3ccc(Cl)cc3)C4)cc12 [Example 201, 3-(3-(3-(4-chlorophenyl)-3,8-diazabicyclo[3.2.1]octan-8-yl)propyl)-8-fluoro-5-methylisoquinolin-1(2H)-one] | < 50
Cc1ccc(F)c2c(=O)[nH]c(CCCN3C4CCC3CN(c3ccc(F)nc3)C4)cc12 [Example 202, 8-fluoro-3-(3-(3-(6-fluoropyridin-3-yl)-3,8-diazabicyclo[3.2.1]octan-8-yl)propyl)-5-methylisoquinolin-1(2H)-one] | < 50
N#Cc1ccc(N2CC3CCC(C2)N3CCCc2cc3cccc(F)c3c(=O)[nH]2)nc1 [Example 203, 6-(8-(3-(8-fluoro-1-oxo-1,2-dihydroisoquinolin-3-yl)propyl)3,8-diazabicyclo[3.2.1]octan-3-yl)nicotinonitrile] | < 50
N#Cc1ccc(N2CC3CCC(C2)N3CCCc2cc3ccc(F)cc3c(=O)[nH]2)nc1 [Example 204, 6-(8-(3-(7-fluoro-1-oxo-1,2-dihydroisoquinolin-3-yl)propyl)-3,8-diazabicyclo[3.2.1]octan-3-yl)nicotinonitrile] | 50 to 80
Cc1cc(F)cc2c(=O)[nH]c(CCCN3C4CCC3CN(c3ccc(C#N)cn3)C4)cc12 [Example 205, 6-(8-(3-(7-fluoro-5-methyl-1-oxo-1,2-dihydroisoquinolin-3-yl)propyl)-3,8-diazabicyclo[3.2.1]octan-3-yl)nicotinonitrile] | 50 to 80
N#Cc1ccc(N2CC3CCC(C2)N3C(=O)CCc2cc3cccc(F)c3c(=O)[nH]2)nc1 [Example 206, 6-(8-(3-(8-fluoro-1-oxo-1,2-dihydroisoquinolin-3-yl)propanoyl)-3,8-diazabicyclo[3.2.1]octan-3-yl)nicotinonitrile] | < 50
Cc1ccc(F)c2c(=O)[nH]c(CCC(=O)N3C4CCC3CN(c3ccc(C#N)cn3)C4)cc12 [Example 207, 6-(8-(3-(8-fluoro-5-methyl-1-oxo-1,2-dihydroisoquinolin-3-yl)propanoyl)-3,8-diazabicyclo[3.2.1]octan-3-yl)nicotinonitrile] | < 50
Cc1ccc(F)c2c(=O)[nH]c(CCC(=O)N3C4CCC3CN(c3ccc(F)cc3)C4)cc12 [Example 208, 8-fluoro-3-(3-(3-(4-fluorophenyl)-3,8-diazabicyclo[3.2.1]octan-8-yl)-3-oxopropyl)-5-methylisoquinolin-1(2H)-one] | < 50
Cc1ccc(F)c2c(=O)[nH]c(CCC(=O)N3C4CCC3CN(c3ccc(Cl)cc3)C4)cc12 [Example 210, 3-(3-(3-(4-chlorophenyl)-3,8-diazabicyclo[3.2.1]octan-8-yl)-3-oxopropyl)-8-fluoro-5-methylisoquinolin-1(2H)-one] | < 50
Cc1ccc(F)c2c(=O)[nH]c(CCC(=O)N3C4CCC3CN(c3ccc(F)nc3)C4)cc12 [Example 211, 8-fluoro-3-(3-(3-(6-fluoropyridin-3-yl)-3,8-diazabicyclo[3.2.1]octan-8-yl)-3-oxopropyl)-5-methylisoquinolin-1(2H)-one] | < 50
Cc1ccc(F)c2c(=O)[nH]c(CCC(=O)N3C4CCC3CN(c3ccc(F)cn3)C4)cc12 [Example 212, 8-fluoro-3-(3-(3-(5-fluoropyridin-2-yl)-3,8-diazabicyclo[3.2.1]octan-8-yl)-3-oxopropyl)-5-methylisoquinolin-1(2H)-one] | < 50
Cc1cc(F)cc2c(=O)[nH]c(CCC(=O)N3C4CCC3CN(c3ccc(C#N)cc3)C4)cc12 [Example 213, 4-(8-(3-(7-fluoro-5-methyl-1-oxo-1,2-dihydroisoquinolin-3-yl)propanoyl)-3,8-diazabicyclo[3.2.1]octan-3-yl)benzonitrile] | < 50
Cc1cc(F)cc2c(=O)[nH]c(CCC(=O)N3C4CCC3CN(c3ccc(C#N)cn3)C4)cc12 [Example 214] | < 50
Cc1cc(F)cc2c(=O)[nH]c(CCC(=O)N3C4CCC3CN(c3ccc(F)cc3)C4)cc12 [Example 215, 7-fluoro-3-(3-(3-(4-fluorophenyl)-3,8-diazabicyclo[3.2.1]octan-8-yl)-3-oxopropyl)-5-methylisoquinolin-1(2H)-one] | < 50
Cc1cc(F)cc2c(=O)[nH]c(CCC(=O)N3C4CCC3CN(c3ccc(Cl)cc3)C4)cc12 [Example 216, 3-(3-(3-(4-chlorophenyl)-3,8-diazabicyclo[3.2.1]octan-8-yl)-3-oxopropyl)-7-fluoro-5-methylisoquinolin-1(2H)-one] | < 50
Cc1cc(F)cc2c(=O)[nH]c(CCC(=O)N3C4CCC3CN(c3ccc(F)nc3)C4)cc12 [Example 217, 7-fluoro-3-(3-(3-(6-fluoropyridin-3-yl)-3,8-diazabicyclo[3.2.1]octan-8-yl)-3-oxopropyl)-5-methylisoquinolin-1(2H)-one] | < 50
Cc1cc(F)cc2c(=O)[nH]c(CCC(=O)N3C4CCC3CN(c3ccc(F)cn3)C4)cc12 [Example 219, 7-fluoro-3-(3-(3-(5-fluoropyridin-2-yl)-3,8-diazabicyclo[3.2.1]octan-8-yl)-3-oxopropyl)-5-methylisoquinolin-1(2H)-one] | < 50

Compound | inhibition at 0.001 µM [%]
N#Cc1ccc(N2CC3CCC(C2)N3C(=O)CCc2cc3ccc(F)cc3c(=O)[nH]2)nc1 [Example 220, 6-(8-(3-(7-fluoro-1-oxo-1,2-dihydroisoquinolin-3-yl)propanoyl)3,8-diazabicyclo[3.2.1]octan-3-yl)nicotinonitrile] | < 50
N#Cc1ccc(N2CCN(CCCc3cc4ncccc4c(=O)[nH]3)CC2)cc1 [Example 221, 4-(4-(3-(5-oxo-5,6-dihydro-1,6-naphthyridin-7-yl)propyl)piperazin-1-yl)benzonitrile] | 50 to 80
N#Cc1ccc(N2CCN(CCCc3cc4ncccc4c(=O)[nH]3)CC2)nc1 [Example 222, 6-(4-(3-(5-oxo-5,6-dihydro-1,6-naphthyridin-7-yl)propyl)piperazin-1-yl)nicotinonitrile] | < 50
O=c1[nH]c(CCCN2CCN(c3ccc(F)cc3)CC2)cc2ncccc12 [Example 223, 7-(3-(4-(4-fluorophenyl)piperazin-1-yl)propyl)-1,6-naphthyridin-5(6H)-one] | < 50
O=c1[nH]c(CCCN2CCN(c3cccc(F)c3)CC2)cc2ncccc12 [Example 224, 7-(3-(4-(3-fluorophenyl)piperazin-1-yl)propyl)-1,6-naphthyridin-5(6H)-one] | < 50
N#Cc1ccc(N2CC3CCC(C2)N3CCCc2cc3ncccc3c(=O)[nH]2)cc1 [Example 225, 4-(8-(3-(5-oxo-5,6-dihydro-1,6-naphthyridin-7-yl)propyl)-3,8-diazabicyclo[3.2.1]octan-3-yl)benzonitrile] | > 80
N#Cc1ccc(N2CCN(CCCc3cc4ncccc4c(=O)[nH]3)CC2)cn1 [Example 226, 5-(4-(3-(5-oxo-5,6-dihydro-1,6-naphthyridin-7-yl)propyl)piperazin-1-yl)picolinonitrile] | < 50
O=c1[nH]c(CCCN2CCN(c3ccnc(F)c3)CC2)cc2ncccc12 [Example 227, 7-(3-(4-(2-fluoropyridin-4-yl)piperazin-1-yl)propyl)-1,6-naphthyridin-5(6H)-one] | < 50
N#Cc1ccc(N2CC3CCC(C2)N3CCCc2cc3ncccc3c(=O)[nH]2)cn1 [Example 229, 5-(8-(3-(5-oxo-5,6-dihydro-1,6-naphthyridin-7-yl)propyl)-3,8-diazabicyclo[3.2.1]octan-3-yl)picolinonitrile] | < 50
O=c1[nH]c(CCCN2C3CCC2CN(c2ccc(F)cc2)C3)cc2ncccc12 [Example 230] | < 50
O=c1[nH]c(CCCN2C3CCC2CN(c2ccc(F)cn2)C3)cc2ncccc12 [Example 231, 7-(3-(3-(5-fluoropyridin-2-yl)-3,8-diazabicyclo[3.2.1]octan-8-yl)propyl)-1,6-naphthyridin-5(6H)-one] | < 50
N#Cc1ccc(N2CC3CCC(C2)N3CCCc2cc3ncccc3c(=O)[nH]2)nc1 [Example 232, 6-(8-(3-(5-oxo-5,6-dihydro-1,6-naphthyridin-7-yl)propyl)-3,8-diazabicyclo[3.2.1]octan-3-yl)nicotinonitrile] | < 50
O=c1[nH]c(CCCN2C3CCC2CN(c2ccc(F)nc2)C3)cc2ncccc12 [Example 233, 7-(3-(3-(6-fluoropyridin-3-yl)-3,8-diazabicyclo[3.2.1]octan-8-yl)propyl)-1,6-naphthyridin-5(6H)-one] | 50 to 80
N#Cc1ccc(C2=CCN(CCCc3cc4ncccc4c(=O)[nH]3)CC2)cn1 [Example 234, 1′-(3-(5-oxo-5,6-dihydro-1,6-naphthyridin-7-yl)propyl)-1′,2′,3′,6′-tetrahydro-[3,4′-bipyridine]-6-carbonitrile] | < 50
N#Cc1ccc(C2=CCN(CCCc3cc4ncccc4c(=O)[nH]3)CC2)nc1 [Example 235, 1′-(3-(5-oxo-5,6-dihydro-1,6-naphthyridin-7-yl)propyl)-1′,2′,3′,6′-tetrahydro-[2,4′-bipyridine]-5-carbonitrile] | < 50
O=c1[nH]c(CCCN2CC=C(c3ccc(F)cc3)CC2)cc2ncccc12 [Example 236, 7-(3-(4-(4-fluorophenyl)-3,6-dihydropyridin-1(2H)-yl)propyl)-1,6-naphthyridin-5(6H)-one] | < 50
O=c1[nH]c(CCCN2CC=C(c3ccnc(F)c3)CC2)cc2ncccc12 [Example 237, 7-(3-(2′-fluoro-3,6-dihydro-[4,4′-bipyridine]-1(2H)-yl)propyl)-1,6-naphthyridin-5(6H)-one] | < 50

same assay, conditions: PARP-1 enzyme activity

Compound | pIC50
Cc1ccc(F)c2c(=O)[nH]c(CCCN3C4CCC3CN(c3ccc(C#N)nc3)C4)cc12 [Example 200, 5-(8-(3-(8-fluoro-5-methyl-1-oxo-1,2-dihydroisoquinolin-3-yl)propyl)-3,8-diazabicyclo[3.2.1]octan-3-yl)picolinonitrile] | 8.91
